Six molecules from patent US20080032978A1, “SOLUBLE EPOXIDE HYDROLASE INHIBITORS” (Arete Therapeutics, Inc., priority 2006, published 2008) can be followed below.

A word on the melting point: it is the temperature, or range, at which the solid turns liquid.

The test system of data set [1] is soluble epoxide hydrolase (sEH). Nature of the data set: Fluorescent assay for mouse and human soluble epoxide hydrolase (CMNPC substrate). Format: biochemical. The text has this:
Fluorescent Assay for Mouse and Human Soluble Epoxide Hydrolase Recombinant mouse sEH (MsEH) and human sEH (HsEH) were produced in a baculovirus expression system as previously reported. Grant et al., J. Biol. Chem., 268:17628-17633 (1993); Beetham et al., Arch. Biochem. Biophys., 305:197-201 (1993). The expressed proteins were purified from cell lysate by affinity chromatography. Wixtrom et al., Anal. […] Protein concentration was quantified using the Pierce BCA assay using bovine serum albumin as the calibrating standard. […] Solutions: Bis/Tris HCl 25 mM 7.0 containing 0.1 mg/mL of BSA (buffer […] at 0.25 mM in DMSO. Mother solution of enzyme in buffer A (Mouse sEH at 6 μg/mL and Human sEH at 5 μg/mL). Inhibitor dissolved in DMSO at the appropriate concentration. Protocol: In a black 96 well plate, fill all the wells with 150 μL of buffer A. Add 2 μL of DMSO in well A2 and A3, and then add 2 μL of inhibitor solution in A1 and A4 through A12. Add 150 μL of buffer A in a row A, then mix several time and transfer 150 μL to row B. Repeat this operation up to row H. The 150 μL removed from row H go to the trash. Add 20 μL of buffer A in column 1 and 2, then add 20 μL of enzyme solution to column 3 to 12. Incubate the plate for 5 minutes in the plate reader at 30° C. During incubation prepare the working solution of substrate by mixing 3.68 mL of buffer A (4×0.920 mL) with 266 μL (2×133 μL) of substrate solution). At t=0, add 30 μL of working substrate solution with multi-channel pipette labeled “Briggs 303” and start the reading ([S]final: 5 μM). Read with ex: 330 nm (20 nm) and em: 465 nm (20 nm) every 30 second for 10 minutes. The velocities are used to analyze and calculate the IC50s.

For `O=C(NC1CCC(C(=O)N2CCOCC2)CC1)NC12CC3CC(CC(C3)C1)C2` (stereo not drawn) [Compound 11, 1-Adamantan-1-yl-3-[4-(morpholine-4-carbonyl)-cyclohexyl]-urea], the melting point fell in the range of 128 to 131 °C. Also, the “% I” value in data set [1] (Conc of I 500 nM) turned out to be 96%.
Taken in the same sequence, the figures for `CN(C)CCN(C)C(=O)c1ccc(NC(=O)NC23CC4CC(CC(C4)C2)C3)cc1` [Compound 37, 4-(3-Adamantan-1-yl-ureido)-N-(2-dimethylamino-ethyl)-N-methyl-benzamide] were 150 to 156 °C and 88%.
Molecule `O=C(Nc1ccc(C(=O)N2CCC(C(=O)O)CC2)cc1)NC12CC3CC(CC(C3)C1)C2` [Compound 12, 1-[4-(3-Adamantan-1-yl-ureido)-benzoyl]-piperidine-4-carboxylic acid] showed a melting point of 272 to 275 °C. For the same molecule, the “% I” value in data set [1] (Conc of I 5000 nM) is 99%.
As for `CN1CCN(C(=O)c2ccc(NC(=O)NC34CC5CC(CC(C5)C3)C4)cc2)CC1` [Compound 5, 1-Adamantan-1-yl-3-[4-(4-methyl-piperazine-1-carbonyl)-phenyl]-urea], the melting point was in the range of 190 to 196 °C. In data set [1] (Conc of I 500 nM), the “% I” value turned out to be 96%.
Taken in the same sequence, the figures for `COCCN1CCN(C(=O)c2ccc(NC(=O)NC34CC5CC(CC(C5)C3)C4)cc2)CC1` [Compound 4, 1-Adamantan-1-yl-3-{4-[4-(2-methoxy-ethyl)-piperazine-1-carbonyl]-phenyl}-urea] were 191 to 194 °C and 96%.
Taken in the same sequence, the figures for `CN(CC(=O)O)C(=O)C1CCC(NC(=O)NC23CC4CC(CC(C4)C2)C3)CC1` (stereo not drawn) [Compound 36, {[4-(3-Adamantan-1-yl-ureido)-cyclohexanecarbonyl]-methyl-amino}-acetic acid] were 236 to 240 °C and 95%.
